Source: the supplement of paper PMC10307832

What was measured:
Experiment in all cases: relative viability (nuclei count vs DMSO), 5 days (fraction); higher = more cells survive
[1] = compound: N[C@@H]1CCCN(c2c(/C=C3\SC(=O)NC3=O)cccc2-c2ccccc2)C1 [AZD1208] + CS(=O)(=O)N1CCN(Cc2cc3nc(-c4cccc5[nH]ncc45)nc(N4CCOCC4)c3s2)CC1 [Pictilisib] (partner 1 µM)
Procedure, shortened: (§1)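 Nuclei were stained with Hoechst during a one-step fixation (final 0.05% Triton X-100, 1% formaldehyde, 1 ug/ml Hoechst) carried out 5 days after dosing, then counted on 4× images. The cells, lung cancer lines in 1536-well plates, had been dosed by pin tool the day after seeding with one drug alone or a fixed anchor-drug dose plus five library-drug doses (not always all listed) in √10 steps. Relative viability is the nuclei count in treated wells divided by that in vehicle wells, and each value is the median of duplicate plates.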

[2] = compound: N[C@@H]1CCCN(c2c(/C=C3\SC(=O)NC3=O)cccc2-c2ccccc2)C1 [AZD1208] + COc1cc2c(Oc3ccc(NC(=O)C4(C(=O)Nc5ccc(F)cc5)CC4)cc3F)ccnc2cc1OCCCN1CCOCC1 [Foretinib] (partner 0.25 µM)
Procedure, shortened: as §1

[3] = compound: N[C@@H]1CCCN(c2c(/C=C3\SC(=O)NC3=O)cccc2-c2ccccc2)C1 [AZD1208]
Procedure, shortened: (§2)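 On vehicle-anchored 1536-well plates, lung cancer cell lines held overnight at 37 °C were pinned with five library-drug doses (not always all listed) spaced by √10. With no medium change over 5 days, they were then fixed, permeabilised and Hoechst-stained in one step and imaged at 4×. MetaXpress counted nuclei, and viability is the median across plates of treated-well over vehicle-well nuclei. Acceptance needed control CV below 25% and at least one doubling.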

[4] = compound: CN1CCN(CC1)C2=CC(=C(C=C2)NC3=NC(=C(S3)C(=O)C4=C(C=CC=C4Cl)Cl)N)OC [XMD14-99]
Procedure, shortened: as §2

Cell Line UMC-11 has a relative viability ([1]; first compound 0.08 µM) of 0.507, a relative viability ([1]; first compound 0.253 µM) of 0.612 and a relative viability ([1]; first compound 0.8 µM) of 0.51. For the same cell line, the relative viability ([1]; first compound 2.53 µM) was 0.389, the relative viability ([1]; first compound 8 µM) was 0.344 and the relative viability ([2]; first compound 0.08 µM) was 0.884. It also gave a relative viability ([2]; first compound 0.253 µM) of 0.877, a relative viability ([2]; first compound 0.8 µM) of 0.77 and a relative viability ([2]; first compound 2.53 µM) of 0.741. The relative viability ([2]; first compound 8 µM) was 0.458, the relative viability ([3]; 0.08 µM) was 0.85 and the relative viability ([3]; 0.253 µM) was 0.851. For the same cell line, the relative viability ([3]; 0.8 µM) was 0.713, the relative viability ([3]; 2.53 µM) was 0.67 and the relative viability ([3]; 8 µM) was 0.511. For the same cell line, the relative viability ([4]; 0.08 µM) was 0.968, the relative viability ([4]; 0.8 µM) was 1.02 and the relative viability ([4]; 2.53 µM) was 1. For the same cell line, the relative viability ([4]; 8 µM) was 0.83.
